One experiment addresses caPCNA (Homo sapiens, UniProt P12004). The experiment can be described thus: Molecular probe binding in vitro.
A further experiment has as its system HCT-116. Put plainly: Cell growth IC50, screening of AOH1160 analogs. It counts as cell-based. The following applies: Homo sapiens, HCT-116; read-out: IC50 values. Here is the method:
(§1) FIG. 29. IC50 data for select compounds. The indicated cell lines were seeded at 10^4 cells per well in a 96 well plate. After allowing to attach to the plate overnight, cells were treated with various concentrations of the indicated compounds in triplicates for 72 hrs. The cell growth was measured by an SRB assay. The cell abundances under each treatment condition relative to the baseline were averaged and graphed ±S.D. The baseline is defined as the median value of the cell abundances under the treatment by the two lowest compound concentrations. The IC50 was calculated by the Prism program.

The next experiment deals with OVCAR8. Put plainly: Cell growth IC50, screening of AOH1160 analogs. It counts as cell-based. The following applies: Homo sapiens, OVCAR-8; OVCAR8; read-out: IC50 values. Here is the method:
as §1

A further experiment concerns RKO. Put plainly: Cell growth IC50, screening of AOH1160 analogs. It counts as cell-based. The settings on record: Homo sapiens, read-out: IC50 values. Here is the method:
as §1

For a further experiment, the system named is SK-N-AS. The experiment can be described thus: Cell growth IC50, screening of AOH1160 analogs. It counts as cell-based. The following applies: Homo sapiens. Here is the method: as §1
Another experiment concerns SK-N-BE(2)c. The experiment can be described thus: Cell growth IC50, screening of AOH1160 analogs. It counts as cell-based. The settings on record: Homo sapiens. Here is the method:
as §1

The subject of a further experiment is A375. Put plainly: Cell growth IC50, screening of AOH1160 analogs. It counts as cell-based. The settings on record: Homo sapiens, A-375. Here is the method:
as §1

A further experiment relates to γH2A.X. The experiment can be described thus: γH2A.X Western blot (DNA damage marker). It counts as cell-based, human. The settings on record: SK-N-AS; 500 nM AOH1996 and/or 50 μM DRB overnight.
For the next experiment, the system named is A549. The experiment can be described thus: Cell growth IC50, screening of AOH1160 analogs. It counts as cell-based. The settings on record: Homo sapiens. Here is the method:
as §1

Another experiment has as its system A673. Put plainly: Cell growth IC50, screening of AOH1160 analogs. It counts as cell-based. The settings on record: Homo sapiens. Here is the method: as §1
A further experiment concerns Hela. The experiment can be described thus: Cell growth IC50, screening of AOH1160 analogs. It counts as cell-based. The settings on record: Homo sapiens. Here is the method:
as §1

For a further experiment, the system named is H1753. Put plainly: Cell growth IC50, screening of AOH1160 analogs. It counts as cell-based. Here is the method: as §1
Another experiment concerns H358. Put plainly: Cell growth IC50, screening of AOH1160 analogs. The settings on record: Homo sapiens, NCI-H358. It counts as cell-based. Here is the method:
as §1

In a further experiment the test system is MDA-MB-468. Put plainly: Cell growth IC50, screening of AOH1160 analogs. It counts as cell-based. The settings on record: Homo sapiens, MDA-MB-468; read-out: IC50 values. Here is the method:
as §1

Experiment [1] deals with SK-N-AS derived xenograft tumors. The experiment can be described thus: Survival of mice bearing xenograft tumors, AOH1996 with CPT-11. It counts as in vivo, ES1^e/SCID mice. The settings on record: AOH1996 80 mg/kg oral 8 d; CPT-11 15 mg/kg i.p. 3 d; vs untreated. Here is the method:
FIGS. 4A-4H. Pharmacokinetics and anti-tumor growth activity of AOH1996 in vivo. FIG. 4A: After oral administration, the plasma concentrations of AOH1996 from three male and three female ES1^e/SCID mice at the indicated time points were averaged and graphed ±S.D. The inset contains PK parameters determined by a standard noncompartmental method. FIG. 4B: A similar PK study of AOH1996 was performed in dogs. FIGS. 4C-4E: Mice bearing the xenograft tumors of neuroblastoma (FIG. 4C: SK-N-BE(2)c), breast cancer (FIG. 4D: MDA-MB-468), and small-cell lung cancer (FIG. 4E: H82) were given vehicle only (black) or 40 mg/kg of AOH1996 (grey) twice daily immediately after the first measurement. Tumor sizes were measured by a dial caliper each week. Tumor volumes (0.4×L×W^2) were averaged and graphed ±S.E. (*, P<0.01). FIG. 4F: Animal body weight was monitored throughout the studies as an indicator of toxicity. […] FIG. 4G: The levels of phosphor-Chk1 (pChk1) and γH2A.X in SK-N-BE(2)c derived tumor samples were analyzed by IHC. […] The p values determined by the Log-rank (Mantel-Cox) test between combination treatment and each of the control groups are p=0.0003 (Combination vs. NoRx), p=0.005 (Combination vs. AOH1996 alone), and p=0.024 (Combination vs. CPT-11 alone). […]
In vivo tumor model. […] Tumor size and animal weight were measured weekly. […]

The subject of a further experiment is SK-N-DZ. The experiment can be described thus: Cell growth IC50, screening of AOH1160 analogs. It counts as cell-based. The settings on record: Homo sapiens. Here is the method: as §1

Each structure is given as a SMILES string. Like-named read-outs stand apart in the source and are kept apart here.

Chain of caPCNA (P12004 whole entry): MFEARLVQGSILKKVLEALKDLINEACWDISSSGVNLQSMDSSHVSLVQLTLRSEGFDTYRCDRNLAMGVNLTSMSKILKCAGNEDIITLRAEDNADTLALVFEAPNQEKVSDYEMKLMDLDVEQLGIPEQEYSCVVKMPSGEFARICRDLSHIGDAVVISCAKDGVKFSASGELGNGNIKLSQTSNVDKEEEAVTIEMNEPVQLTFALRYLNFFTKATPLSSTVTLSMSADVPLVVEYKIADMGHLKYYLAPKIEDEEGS

With `N[C@@H](CCC(=O)O)C(=O)O` [Glutamic acid], the “binding to caPCNA as molecular probe” value on caPCNA is listed as “bound caPCNA tightly”.

Regarding `O=C(CNC(=O)c1cccc2ccccc12)Nc1ccccc1Sc1cccc(F)c1` [AOH1996S-3F, N-(2-((2-((3-fluorophenyl)thio)phenyl)amino)-2-oxoethyl)-1-naphthamide], the IC50 in the experiment on HCT-116 was determined as 2210 nM; in the experiment on OVCAR8 it was 1600 nM; with RKO, 2320 nM.

Turning to `Cc1ccccc1Oc1ccccc1NC(=O)CNC(=O)c1cccc(C)c1C` [AOH-DMB-2CH3, 2,3-dimethyl-N-(2-oxo-2-((2-(o-tolyloxy)phenyl)amino)ethyl)benzamide], the figures for the IC50 in the experiment with SK-N-AS (read-out: IC50 values) and in the experiment with SK-N-BE(2)c were 1120 nM and 1030 nM, respectively.

Consider `O=C(CNC(=O)c1cccc2ccccc12)Nc1ccccc1Sc1ccc(F)cc1` [AOH1996S-4F, N-(2-((2-((4-fluorophenyl)thio)phenyl)amino)-2-oxoethyl)-1-naphthamide], for which the IC50 was determined as 350 nM in the experiment with A375 and 370 nM with SK-N-AS (read-out: IC50 values).

As for `OC[C@H]1O[C@@H](n2cnc3cc(Cl)c(Cl)cc32)[C@H](O)[C@@H]1O` [DRB, reference compound], the “γH2A.X levels, AOH1996 with DRB” value in the experiment on γH2A.X was “can suppress the DNA damage induced by AOH1996”.

Turning to `COc1cccc(Oc2ccccc2NC(=O)CNC(=O)c2c(C)cc(C)cc2C)c1` [AOH1996TMB, N-(2-((2-(3-methoxyphenoxy)phenyl)amino)-2-oxoethyl)-2,4,6-trimethylbenzamide], the 50% inhibitory concentration (IC50) is 4700 nM with A549 (FIG. 27, read-out: IC50); 4700 nM in the experiment on A549 (read-out: IC50 values); 5500 nM in the experiment with A673 (FIG. 27, read-out: IC50); 5500 nM in the experiment with A673 (read-out: IC50 values); 6500 nM in the experiment on Hela (HeLa, read-out: IC50 values); 6500 nM in the experiment with Hela (FIG. 27, Hela, read-out: IC50).

Turning to `NCCCC[C@H](N)C(=O)O` [Lysine], the “binding to caPCNA as molecular probe” value at caPCNA is given as “bound caPCNA tightly”.

As for `COc1cccc(Oc2ccccc2NC(=O)[C@H](C)NC(=O)c2cccc3ccccc23)c1` [AOH1996LA, (S)—N-(1-((2-(3-methoxyphenoxy)phenyl)amino)-1-oxopropan-2-yl)-1-naphthamide], the IC50 in the experiment on H1753 (FIG. 26, H1752, read-out: IC50) is 1600 nM; in the experiment with H1753 (H1753, read-out: IC50 values) it was 1600 nM; in the experiment with H358 (FIG. 26, H358, read-out: IC50) it was 1800 nM; in the experiment on H358 (read-out: IC50 values), 1800 nM; in the experiment with MDA-MB-468, 2300 nM; in the experiment with SK-N-AS (FIG. 26, AK-N-AS, read-out: IC50), 1500 nM. In the experiment on SK-N-AS (read-out: IC50 values), the IC50 was 1500 nM.

Take `COc1cccc(Sc2ccccc2NC(=O)CNC(=O)c2cccc3ccccc23)c1` [AOH1996S, N-(2-((2-((3-methoxyphenyl)thio)phenyl)amino)-2-oxoethyl)-1-naphthamide]: the half-maximal inhibitory concentration (IC50) in the experiment with A375 amounted to 170 nM; in the experiment with Hela (HeLa, read-out: IC50 values) it was 370 nM.

As to `CCc1c2c(nc3ccc(OC(=O)N4CCC(N5CCCCC5)CC4)cc13)-c1cc3c(c(=O)n1C2)COC(=O)[C@]3(O)CC` [CPT-11, reference compound], the “increase of median survival” value in experiment [1] turned out to be 34.6%.

Turning to `O=C(CNC(=O)c1cccc2ccccc12)Nc1c(Cl)cccc1Oc1ccccc1` [AOH1160-2-C1], the half-maximal inhibitory concentration (IC50) in the experiment on SK-N-AS (read-out: IC50 values), with SK-N-BE(2)c and in the experiment with SK-N-DZ was above 10000 nM throughout.

Source of the values: US20250171404A1, “PCNA INHIBITORS AND USES THEREOF” (CITY OF HOPE, priority 2022, published 2025).
